Measured values taken from publication PMC4853715, “Design, Synthesis and Antitumor Activity of Novel link-bridge and B-Ring Modified Combretastatin A-4 (CA-4) Analogues as Potent Antitubulin Agents” (Scientific Reports, 2016).

Columns and labels:
[1] = test system: A549 cells; test: Detection of intracellular ROS (DCFH-DA flow cytometry); assay type: cell-based, human; conditions: A549, versus control cells and positive control
Method: Intracellular ROS production was measured by use of active oxygen species assay kit (K0111, Beyotime, China). […] After 30 min of incubation in the darkness, cells were washed with DMEM for three times, and then fluorescent intensity was measured by the flow cytometer with excitation and emission wavelengths of 488 and 525 nm, respectively.

[2] = test system: interphase microtubules of A549 cells; test: Confocal microscopy assay of microtubule morphology; assay type: cell-based, human; conditions: A549, 1.0 μM, 48 h
Method: After incubating for 48 h, A549 cells were washed with PBS for three times and fixed with 4% paraformaldehyde for 20 min, permeabilized with cold methanol for another 10 min. After that, the cells were blocked with 5% BSA for 1 h. Subsequently, the cells were washed with PBS, and incubated with anti-tubulin antibody in 3% BSA (1:200 Cytoskeleton, Inc.) overnight at 4 °C. After being washed with PBS for three times, each cover slip was added 200 μL of Cy3-labeled goat anti-mouse IgG (H + L) in 3% BSA (1:500, Cytoskeleton, Inc.) and incubated for 1 h at room temperature. At last, A549 cells was stained with 200 μL of DAPI for 5 min and observed under an confocal microscope (Olympus, USA).

[3] = test system: HepG2; test: MTT assay, antiproliferative activity; assay type: cell-based; conditions: Homo sapiens, 48 h, ± SD
Method: (§1) The in vitro anticancer activities of the prepared compounds against HepG2, Hela, MCF-7, A549, HT-29 and SSC-4 cell lines were evaluated as described in the literature. Target tumor cells were grown to log phase in DMEM medium supplemented with 10% fetal bovine serum. After reaching a dilution of 1 × 10^5 cells Ml^−1 with the medium, 100 μL of the obtained cell suspension was added to each well of 96-well culture plates. Subsequently, incubation was performed at 37 °C in 5% CO2 atmosphere for 12 h before the cytotoxicity assessment. Tested samples at preset concentrations were added to 6 wells with CA-4 being employed as a positive reference. After 48 h exposure period, 25 μL of PBS containing 2.5 mg mL^−1 of MTT (Sigma, USA) was added to each well. After 4 h, the medium was replaced by 150 μL DMSO to dissolve the purple formazan crystals produced. The absorbance at 570 nm of each well was measured with Synergy™ 2 Multi-Mode Microplate Reader. Cell viability (%) was calculated using the following equation: cell viability (%) = (Atreatment/Acontrol) × 100%. The data represented the mean of three independent experiments in triplicate and were expressed as means ± SD.

[4] = test system: A549; test: MTT assay, antiproliferative activity; assay type: cell-based; conditions: Homo sapiens, 48 h, ± SD
Method: as §1

[5] = test system: MCF-7; test: MTT assay, antiproliferative activity; assay type: cell-based; conditions: Homo sapiens, MCF7; MCF-7, MTT, 48 h, ± SD
Method: as §1

[6] = test system: SSC-4; test: MTT assay, antiproliferative activity; assay type: cell-based; conditions: Homo sapiens; SSC-4, MTT, 48 h, ± SD
Method: as §1

[7] = test system: HepG2, Hela, MCF-7, A549, HT-29 and SSC-4 cell lines; test: MTT assay, panel of six cancer cell lines; assay type: cell-based; conditions: Homo sapiens; range over six cell lines; read-out: IC50 values against a panel of cancer cell lines
Method: as §1

[8] = test system: Bax, PARP, Bcl-2, Caspase3 in A549 cells; test: Western blot of apoptosis-related proteins; assay type: cell-based, human
Method: Total cellular proteins are extracted with lysis buffer (50 mmol/l Tris [pH 7.4], 150 mmol/l NaCl, 1% Triton X-100, 1% deoxycholicphenyl methylsulfonyl fluoride, 1 mg/ml aprotinin, 5.0 mmol/l sodium pyrophosphate, […] leupeptin, 0.1 mmol/l phenylmethylsulfonyl fluoride, and 1 mmol/l DTT). Protease inhibitors are added immediately before use. The cells are harvested at the end of treatment and extracted for western blot analysis as described previously. After washing twice with PBS, the cultured cells were collected and lysed in lysis buffer (100 mmol/l Tris-Cl, pH 6.8, 4% (m/v) SDS, 20% (v/v) glycerol, 200 mmol/l β-mercaptoethanol, 1 mmol/l phenylmethylsulfonyl fluoride, and […] aprotinin). The lysates were centrifuged at 13,000 × g for 15 min at 4 °C. The concentration of total proteins was measured using the BCA assay method with Varioskan spectrofluorometer and spectrophotometer (Thermo) at 562 nm. Protein samples were separated with 15% SDS-PAGE and transferred onto the polyvinyldifluoride (PVDF) membranes (Millipore, IPVH 304 F0). Immune complexes were formed by incubation of proteins with primary antibodies overnight at 4 °C followed by IRDye^TM 800 conjugated second antibody for 1 hour at 37 °C. Immunoreactive protein bands were detected with an Odyssey Scanning System (LI-COR Biosciences, 9201-03). Antibodies: primary antibodies of cyclin B1, Cdc2, p-Cdc2 (Thr14/Tyr15), Cdc25C, and p21WAF1/Cip1 were all obtained from EPITOMICS (Abcam, Cambridge, UK); antibodies of Bax and Bcl-2 were obtained from Bioworld (Bioworld Technology, Inc., MN, USA); antibodies of caspase-3, and PARP were all obtained from Santa Cruz (Santa Cruz, CA); and antibody of GAPDH was from Boster (Wuhan, China). The secondary antibodies peroxidase-conjugated affinipure Goat Anti-Mouse IgG (H + L) (111-035-003), peroxidase-conjugated affinipure Goat Anti-Rabbit IgG (H + L) (111-035-003) were obtained from Jackson Immuno Research Laboratories, Inc. (USA).

Q: With `COc1cc(/C=N/NC(=O)c2cn(Cc3ccccc3)c3ccccc23)cc(OC)c1OC` [Compound 7] as the compound, how does the “intracellular ROS production” value [1] read?
A: Its value is “induced the production of significant amounts of ROS”.

Q: What about the microtubule morphology [2] of the same compound?
A: The microtubule morphology was “disorganized interphase microtubules”.

Q: What about the IC50 [3] of the same compound?
A: The IC50 was 630 ± 120 nM.

Q: What about the IC50 [4] of the same compound?
A: The IC50 was 80 ± 10 nM.

Q: And the IC50 [5]?
A: Its IC50 is 640 ± 110 nM.

Q: What about the IC50 [6] of the same compound?
A: Its IC50 is 35600 ± 1910 nM.

Q: What about the IC50 [7] of the same compound?
A: Its IC50 is 80 to 35600 nM.

Q: And the “level of Bax” value ([8]; A549, 0.5, 1 and 2 μM, 48 h)?
A: The value was “efficiently up-regulated”.

Q: And the “level of anti-apoptotic proteins (Bcl-2, Bcl-xl)” value ([8]; A549, 0.5, 1 and 2 μM, 48 h)?
A: The value was “down-regulated”.

Q: What about the “cleaved caspase-3 and PARP” value ([8]; A549, 48 h) of the same compound?
A: Its value is “up regulation”.
